According to patent US20140243403A1, “TREATING COLORECTAL, PANCREATIC, AND LUNG CANCER” (The General Hospital Corporation, priority 2011, published 2014):

Assays:
[1] = system: TOP-FLASH reporter in PANC-1 cells; assay: TOP-FLASH reporter in PANC-1 PDAC cells; type: cell-based; conditions: KRAS-independent PANC-1 cells
From the text: (§1) (E) TOP-FLASH reporter activity in KRAS mutant PDAC cell lines following inhibition of GSK-3 kinase with increasing concentrations of the small molecule inhibitor BIO. PANC-1 are KRAS-independent cells and YAPC are KRAS-dependent cells. Luminescence counts (photons/sec) are plotted on the y-axis. Data are representative of three independent experiments+/−SEM.
(§2) (F) TOP-FLASH reporter dose-response relationships in PANC-1 and YAPC cells following combined treatment with GSK-3 and TAK1 inhibitors (BIO and 5Z-7-Oxozeaenok respectively). Luminescence counts (photons/sec) are plotted on the y-axis. Data are represented as the means of triplicates+/−SEM.
(§3) To further test the role of Wnt signaling in this context, experiments were performed using two KRAS mutant pancreatic cancer (PDAC) cell lines, PANC-1 and YAPC, which are APC wild-type. PANC-1 cells are KRAS-independent, whereas YAPC cells are KRAS-dependent, a distinction that has been linked to increased KRAS signaling in YAPC cells (Singh et al., 2009). […] In contrast, PANC-1 cells undergo stronger induction of TOP-FLASH activity with combined GSK-3 and TAK1 inhibition (FIG. 11F, […]). […] Finally, a constitutively-activated mutant of β-catenin (CTNNB1-CA) containing S33Y and S45A missense mutations was introduced into KRAS-dependent SW620 cells. This mutant caused partial losses in both KRAS and TAK1 dependencies (FIGS. 13A-C). […]

[2] = system: TOP-FLASH reporter in YAPC cells; assay: TOP-FLASH reporter in YAPC PDAC cells; type: cell-based; conditions: KRAS-dependent YAPC cells
From the text: as §1, §2, §3

## O=C1Nc2cc(Br)ccc2/C1=C1/Nc2ccccc2/C1=N\O [BIO]
[1]
  TOP-FLASH reporter induction: weak induction
[2]
  TOP-FLASH reporter induction: strong, dose-dependent TOP-FLASH reporter induction
